# In the supplement of paper PMC10307832:
# Assays:
# Assay in all cases: relative viability (nuclei count vs DMSO), 5 days (fraction); higher = more cells survive
# Neratinib + Palbociclib = compound: CCOc1cc2ncc(C#N)c(Nc3ccc(OCc4ccccn4)c(Cl)c3)c2cc1NC(=O)/C=C/CN(C)C [Neratinib] + CC(=O)c1c(C)c2cnc(Nc3ccc(N4CCNCC4)cn3)nc2n(C2CCCC2)c1=O [Palbociclib] (partner 0.5 µM)
# How it was run: (§1)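 Relative viability is defined as nuclei in treated wells over nuclei in vehicle wells. Duplicate plates were run and medians reported. Lung cancer cell lines in 1536-well plates were dosed by pin tool one day after seeding, with one drug or with a fixed anchor-drug dose plus five library-drug doses (not always all listed) in √10 steps, and nuclei were counted after 5 days.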
# Neratinib + Dasatinib = compound: CCOc1cc2ncc(C#N)c(Nc3ccc(OCc4ccccn4)c(Cl)c3)c2cc1NC(=O)/C=C/CN(C)C [Neratinib] + Cc1nc(Nc2ncc(C(=O)Nc3c(C)cccc3Cl)s2)cc(N2CCN(CCO)CC2)n1 [Dasatinib] (partner 0.075 µM)
# How it was run: as §1
# Neratinib + Bortezomib = compound: CCOc1cc2ncc(C#N)c(Nc3ccc(OCc4ccccn4)c(Cl)c3)c2cc1NC(=O)/C=C/CN(C)C [Neratinib] + CC(C)C[C@H](NC(=O)[C@H](Cc1ccccc1)NC(=O)c1cnccn1)B(O)O [Bortezomib] (partner 0.002 µM)
# How it was run: as §1
# Neratinib + Alpelisib = compound: CCOc1cc2ncc(C#N)c(Nc3ccc(OCc4ccccn4)c(Cl)c3)c2cc1NC(=O)/C=C/CN(C)C [Neratinib] + Cc1nc(NC(=O)N2CCC[C@H]2C(N)=O)sc1-c1ccnc(C(C)(C)C(F)(F)F)c1 [Alpelisib] (partner 2 µM)
# How it was run: as §1
Cell Line,relative viability (Neratinib + Palbociclib; first compound 0.01 µM),relative viability (Neratinib + Palbociclib; first compound 0.03162 µM),relative viability (Neratinib + Palbociclib; first compound 0.1 µM),relative viability (Neratinib + Palbociclib; first compound 1 µM),relative viability (Neratinib + Dasatinib; first compound 0.01 µM),relative viability (Neratinib + Dasatinib; first compound 0.03162 µM),relative viability (Neratinib + Dasatinib; first compound 0.1 µM),relative viability (Neratinib + Dasatinib; first compound 0.3162 µM),relative viability (Neratinib + Dasatinib; first compound 1 µM),relative viability (Neratinib + Bortezomib; first compound 0.01 µM),relative viability (Neratinib + Bortezomib; first compound 0.03162 µM),relative viability (Neratinib + Bortezomib; first compound 0.1 µM),relative viability (Neratinib + Bortezomib; first compound 0.3162 µM),relative viability (Neratinib + Bortezomib; first compound 1 µM),relative viability (Neratinib + Alpelisib; first compound 0.01 µM),relative viability (Neratinib + Alpelisib; first compound 0.03162 µM),relative viability (Neratinib + Alpelisib; first compound 0.1 µM),relative viability (Neratinib + Alpelisib; first compound 0.3162 µM),relative viability (Neratinib + Alpelisib; first compound 1 µM),relative viability (Neratinib + Palbociclib; first compound 0.3162 µM)
LXF-289,0.633,0.631,0.554,0.58,0.186,0.234,0.162,0.21,0.188,1.02,0.998,0.93,1.03,0.975,1.03,1.04,0.974,0.98,0.765,–
NCI-H647,0.446,0.545,0.393,0.188,0.171,0.198,0.207,0.129,0.0912,–,0.914,0.586,0.558,0.664,1.17,1.13,0.958,0.862,0.614,0.344
LC-2-ad,0.487,0.507,0.41,0.499,0.569,0.697,0.545,0.304,0.342,1,1.07,0.866,1,0.963,0.923,0.95,0.734,0.783,0.312,0.442
A-427,0.554,0.576,0.565,0.513,0.895,0.74,0.734,0.673,0.571,1.08,0.996,1.02,0.952,0.918,1.01,1.16,1.06,–,0.521,0.488
NCI-H441,0.244,0.192,0.177,0.161,0.696,0.488,0.611,0.305,0.175,0.661,0.381,0.372,0.54,0.265,0.972,0.906,–,0.504,0.254,0.163
HCC-366,0.418,0.464,0.353,0.211,0.688,0.716,0.615,0.588,0.689,1.16,1.13,–,1.01,1.07,0.716,0.418,0.402,–,0.35,0.431
NCI-H1975,0.658,0.739,0.522,0.176,0.443,0.505,0.313,0.124,0.146,0.36,0.428,0.423,0.252,0.191,0.85,0.738,0.546,0.153,0.192,0.337
NCI-H1437,0.322,0.329,0.293,0.341,0.443,0.396,0.475,0.278,0.3,0.639,–,0.565,0.385,0.475,1.11,1.07,0.714,0.912,0.617,0.268
NCI-H2023,0.395,0.363,0.308,0.348,0.576,0.562,0.473,0.479,0.42,1.08,1.08,0.802,0.995,0.69,0.62,0.611,0.511,0.445,0.298,0.322
